Earlier results as cited in US8791105B2, “Methods for alleviating chronic pain and improving performance of cattle undergoing dehorning or castration” (Kansas State University Research Foundation, priority 2010, dated 2014).

Experiments:
[1] = plasma; humans; cited from earlier work
[2] = in vivo; cited from earlier work

| Compound | reported minimum effective concentration [1] [µg/mL] | plasma half-life previously reported [2] [min] |
| --- | --- | --- |
| 1-(aminomethyl) cyclohexane acetic acid [gabapentin] | 2 | – |
| O=C(O)c1ccccc1O [salicylate] | – | 30 |
